# Measured values published in ChEMBL document CHEMBL5500339, “4-Hydroxy-2-pyridone derivatives with antitumor activity produced by mangrove endophytic fungus Talaromyces sp. CY-3” (Eur J Med Chem, 2024).
# Tests used:
# [1] = test system: A549; experiment: Cytotoxicity against human A549 cells assessed as reduction in cell viability incubated for 48 hrs by MTT assay; assay type: functional, cell-based; conditions: A549, 48 h
# [2] = test system: PC-3; experiment: Cytotoxicity against human PC-3 cells assessed as reduction in cell viability incubated for 48 hrs by MTT assay; assay type: functional, cell-based; conditions: PC-3, 48 h
# [3] = test system: HCT-116; experiment: Cytotoxicity against human HCT-116 cells assessed as reduction in cell viability incubated for 48 hrs by MTT assay; assay type: functional, cell-based; conditions: HCT-116, 48 h
# [4] = test system: MDA-MB-435; experiment: Cytotoxicity against human MDA-MB-435 cells assessed as reduction in cell viability incubated for 48 hrs by MTT assay; assay type: functional, cell-based; conditions: MDA-MB-435, 48 h
# [5] = test system: SNB-19; experiment: Cytotoxicity against human SNB-19 cells assessed as reduction in cell viability incubated for 48 hrs by MTT assay; assay type: functional, cell-based; conditions: SNB-19, 48 h
# [6] = test system: MDA-MB-231; experiment: Cytotoxicity against human MDA-MB-231 cells assessed as reduction in cell viability incubated for 48 hrs by MTT assay; assay type: functional, cell-based; conditions: MDA-MB-231, 48 h
# [7] = test system: NCI-H1703; experiment: Induction of cell cycle arrest in human NCI-H1703 cells assessed as accumulation of cells at G2/M phase at 2 uM incubated for 24 hrs by flow cytometric analysis (reference value: 29.88 %); assay type: functional
# [8] = test system: A549; experiment: Induction of cell cycle arrest in human A549 cells assessed as accumulation of cells at S phase at 2 uM incubated for 24 hrs by flow cytometric analysis (reference value: 31.31 %); assay type: functional
# [9] = test system: A549; experiment: Induction of cell cycle arrest in human A549 cells assessed as accumulation of cells at G2/M phase at 2 uM incubated for 24 hrs by flow cytometric analysis (reference value: 17.2 %); assay type: functional
# [10] = test system: A549; experiment: Induction of cell cycle arrest in human A549 cells assessed as accumulation of cells at G1/G0 phase at 2 uM incubated for 24 hrs by flow cytometric analysis (reference value: 51.49 %); assay type: functional
# [11] = test system: NCI-H1703; experiment: Induction of cell cycle arrest in human NCI-H1703 cells assessed as accumulation of cells at G1/G0 phase at 2 uM incubated for 24 hrs by flow cytometric analysis (reference value: 42.06 %); assay type: functional
# [12] = test system: NCI-H1703; experiment: Induction of cell cycle arrest in human NCI-H1703 cells assessed as accumulation of cells at S phase at 2 uM incubated for 24 hrs by flow cytometric analysis (reference value: 28.06 %); assay type: functional
SMILES,IC50 [1],IC50 [2],IC50 [3],IC50 [4],IC50 [5],IC50 [6],Activity [7],Activity [8],Activity [9],Activity [10],Activity [11],Activity [12]
CC[C@H](C)C[C@@H](C)/C=C(\C)[C@@H]1O[C@H](c2c(O)c(-c3ccc(O)cc3)cn(C)c2=O)CC=C1C,48.9 µM,> 50 µM,29.2 µM,34.9 µM,40.4 µM,43.1 µM,,,,,,
CC[C@H](C)C[C@@H](C)/C=C(\C)[C@@H]1O[C@H](c2c(O)c(-c3ccc(O)cc3)cn(C)c2=O)CC[C@H]1CO,8.41 µM,> 50 µM,10.5 µM,2.3 µM,> 50 µM,> 50 µM,,,,,,
CC[C@H](C)C[C@@H](C)/C=C(\C)[C@@H]1O[C@H](c2c(O)c(-c3ccccc3O)cn(C)c2=O)CC[C@H]1C,> 50 µM,18.6 µM,7.57 µM,6.95 µM,> 50 µM,12.7 µM,,,,,,
C/C=C/[C@@H]1Oc2c(-c3ccccc3)cn(O)c(=O)c2[C@@H]2[C@H]1CCC[C@H]2C,32.7 µM,49.1 µM,14.4 µM,20.3 µM,20.3 µM,20.1 µM,,,,,,
CC[C@H](C)C[C@@H](C)/C=C(\C)[C@@H]1O[C@H](c2c(O)c(-c3ccccc3)cn(C)c2=O)CC[C@H]1C,9.51 µM,16.3 µM,2.45 µM,24.6 µM,5.76 µM,7.84 µM,,,,,,
C/C=C/[C@@H]1Oc2c(-c3ccccc3)c[nH]c(=O)c2[C@@H]2[C@H]1CCC[C@H]2C,> 50 µM,36.1 µM,16.8 µM,29.5 µM,13.4 µM,> 50 µM,,,,,,
CC[C@H](C)C[C@@H](C)/C=C(\C)[C@@H]1O[C@H](c2c(O)c(-c3ccc(O)cc3)cn(C)c2=O)CC[C@]1(C)O,11.1 µM,8.1 µM,10.5 µM,6.15 µM,> 50 µM,8.49 µM,,,,,,
CC[C@H](C)C[C@@H](C)/C=C(\C)[C@@H]1O[C@H](c2c(O)c(-c3ccc(O)cc3)cn(C)c2=O)CC[C@H]1C,14.9 µM,43 µM,7.74 µM,9.41 µM,9.04 µM,14.9 µM,,,,,,
CC[C@H](C)C[C@@H](C)/C=C(\C)[C@@H]1O[C@H](c2c(O)c(-c3ccccc3)c[nH]c2=O)CC[C@H]1C,3.89 µM,11.4 µM,> 50 µM,7.29 µM,> 50 µM,5 µM,,,,,,
CC[C@H](C)C[C@@H](C)/C=C(\C)[C@@H]1O[C@H](c2c(O)c(-c3ccc(O)cc3)c[nH]c2=O)CC[C@H]1C,3.46 µM,6.65 µM,2.51 µM,10 µM,> 50 µM,4.4 µM,,,,,,
CC[C@H](C)C[C@@H](C)/C=C(\C)[C@H]1O[C@@H](c2c(O)c(-c3ccccc3)c[nH]c2=O)CC=C1C,3.81 µM,2.18 µM,1.76 µM,9.02 µM,6.76 µM,5.28 µM,,,,,,
CC(=O)c1c(C)c2cnc(Nc3ccc(N4CCNCC4)cn3)nc2n(C2CCCC2)c1=O [PALBOCICLIB],,,,,,,20.91%,5.87%,4.7%,89.43%,72.21%,6.88%
